Assay results from patent publication EP3643303A1, “COMPOUNDS FOR USE IN THE TREATMENT OR PREVENTION OF FIBROTIC DISEASES; PHARMACEUTICAL, COSMETIC COMPOSITIONS AND USES THEREOF” (InnovativeHealth Group SL, priority 2018, dated 2020).

Columns and labels:
[1] = test system: Il13, IL1β, IL6, CCL2, TGFβ and IL4; experiment: Real-time quantitative PCR of inflammatory and fibrotic cytokines in skin of BLM mice; format: in vivo; conditions: mRNA, 2^-ΔΔCt, Figure 11
Experimental: Total RNA was isolated from mice frozen skin tissue using QIAzol lysis reagent (Qiagen, Hilden, Germany) and purified with RNeasy mini kit (Qiagen). Total RNA (1 µg) was retrotranscribed using the iScript™ cDNA Synthesis Kit (Bio-Rad), and the cDNA generated was analysed by real-time PCR using the iQTM SYBR Green Supermix (Bio-Rad) using a CFX96 Real-Time PCR Detection System (Bio-Rad). […] The GAPDH housekeeping gene was used to standardize the mRNA expression levels in every sample. Expression levels were calculated using the 2^-ΔΔCt method. Gene expression were normalized to GADPH mRNA levels in each sample and expressed using the 2^-ΔΔCt method. Table 1. List of mouse primer sequences used in quantitative Polymerase Chain Reaction

TRPV-1 = TRPV-1 (Homo sapiens, UniProt Q8NER1); experiment: Capsaicin-induced intracellular calcium mobilization (Fura-2) in HEK-293T-TRPV1 cells; format: cell-based; parameters: expressed in transfected cells; host or cells: HEK-293T; conditions: capsaicin 1 µM; Fura-2 AM; Figure 2A
Chain of TRPV-1 (Q8NER1 whole entry): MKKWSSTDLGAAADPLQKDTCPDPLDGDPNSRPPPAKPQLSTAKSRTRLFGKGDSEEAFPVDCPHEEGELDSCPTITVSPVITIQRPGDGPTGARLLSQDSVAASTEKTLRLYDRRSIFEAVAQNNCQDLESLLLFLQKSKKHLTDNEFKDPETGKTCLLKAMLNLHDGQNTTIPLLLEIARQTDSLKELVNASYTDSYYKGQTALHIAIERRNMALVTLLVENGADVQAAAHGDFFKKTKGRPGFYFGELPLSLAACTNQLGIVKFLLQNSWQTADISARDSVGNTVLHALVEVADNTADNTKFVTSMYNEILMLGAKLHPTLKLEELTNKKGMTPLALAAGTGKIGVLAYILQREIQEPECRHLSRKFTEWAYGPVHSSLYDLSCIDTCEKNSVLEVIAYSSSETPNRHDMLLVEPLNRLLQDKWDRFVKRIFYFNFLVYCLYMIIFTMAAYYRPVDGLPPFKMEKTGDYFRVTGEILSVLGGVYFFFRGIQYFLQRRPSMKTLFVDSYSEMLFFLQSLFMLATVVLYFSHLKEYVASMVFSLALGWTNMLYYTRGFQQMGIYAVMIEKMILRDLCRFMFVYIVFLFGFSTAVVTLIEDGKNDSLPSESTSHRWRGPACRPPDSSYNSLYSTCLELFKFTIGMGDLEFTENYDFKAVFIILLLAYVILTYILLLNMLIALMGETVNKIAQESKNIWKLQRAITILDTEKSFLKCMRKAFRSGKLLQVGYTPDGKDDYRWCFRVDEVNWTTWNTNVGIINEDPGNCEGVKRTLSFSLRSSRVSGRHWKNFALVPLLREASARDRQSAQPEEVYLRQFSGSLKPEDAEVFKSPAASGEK
Experimental: Next, the effect of (+)CBD and (-)CBD on TRPV-1 activity was investigated. TRPV-1 is an ionotropic receptor that upon activation by a specific agonist such as capsaicin mobilize intracellular calcium in TRPV-1 expressing cells. Moreover, TRPV-1-induced calcium exerts cytotoxicity in non-neuronal cells overexpressing this receptor. To explore the effect of (+)CBD on calcium mobilization HEK-293T-TRPV1 cells were cultured in 96-well plates (10^3 cells/well) and loaded with Fura 2 acetyoxymethyl ester (Fura-2 AM; 8 µM) (Molecular Probes, Carlsbad, CA) in Dulbecco's modified Eagle's medium (containing 110 mg/l pyruvate) supplemented with 10% FBS and incubated (40 min, 37°C, 5% CO2). The cells were preincubated with (+)CBD and after 15 sec treated with capsaicin (1µM). Changes in intracellular free calcium concentration (intracellular [Ca^2+]free) were measured by digital microscopy equipped with ratiometric recording of single cells. (BD Pathway 855 Bioimager). The field of cells was monitored by sequential dual excitation, 352 and 380 nm, and the analysis of the image ratios used methods described previously to calculate changes in intracellular [Ca^2+]free. The ratio images were acquired every 6 s. At the end of experiments, the cells were exposed to ionomycin (30 s, 1 µM) to obtain a maximal response.

C=C(C)[C@@H]1CCC(C)=C[C@H]1c1c(O)cc(CCCCC)cc1O [(-)CBD, 2-[(1R,6R)-3-methyl-6-prop-1-en-2-ylcyclohex-2-en-1-yl]-5-pentylbenzene-1,3-diol]
expression levels of CCL2 in the skin [1]: significantly reduced
expression levels of IL1β in the skin [1]: significantly reduced
expression levels of IL4 in the skin [1]: significantly reduced
expression levels of IL6 in the skin [1]: significantly reduced
expression levels of Il13 in the skin [1]: significantly reduced
expression levels of TGFβ in the skin [1]: significantly reduced
capsaicin-induced calcium mobilization (TRPV-1): prevent capsaicin-induced calcium mobilization
